Test systems include HCC-2998 colon; MCF7 breast; MDA-MB-435; NCI-H522 lung; SK-MEL-5 melanoma; SK-OV-3 ovarian; SR leukemia; TK-10 renal; UACC-257 melanoma; UO-31 renal.
What all share (assay): inhibition of tumour cell growth, NCI panel, 48 h

Each structure is given as a SMILES string.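 Interpolation was linear, between the two tested concentrations surrounding the appropriate level; five concentrations were tested over 48 hours in 96-well plates. GI50 is the concentration that inhibits growth by half. TGI: concentration producing complete growth inhibition.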 Bounds are passed on as bounds.

In the case of `NC(Cc1ccnnc1)C(=O)O` (centres undefined), the TGI in the assay on HCC-2998 colon, in the assay on MCF7 breast, in the assay on MDA-MB-435, in the assay on NCI-H522 lung, in the assay on SK-MEL-5 melanoma and in the assay on SK-OV-3 ovarian was over 100 µM in each case. The TGI in the assay on SR leukemia, in the assay on TK-10 renal, in the assay on UACC-257 melanoma and with UO-31 renal was over 100 µM in each case.

Turning to `CNC(=O)OC1C(O[C@H]2C[C@H]3[C@@H]4CC=C5C[C@@H](O)CC[C@]5(C)[C@H]4CC[C@]3(C)[C@H]2[C@H](C)C(=O)CCC(C)C)OCC(O)C1OC1OCC(O)C(O)C1OC(=O)c1ccc(OC)cc1` (some centres undefined), the GI50 is 0.693 µM in the assay with HCC-2998 colon; 0.0149 µM in the assay with MCF7 breast; 0.0203 µM in the assay with MDA-MB-435; 0.0314 µM with NCI-H522 lung; 0.026 µM in the assay on SK-MEL-5 melanoma; 0.0177 µM in the assay with SK-OV-3 ovarian. Also, the GI50 with SR leukemia was 0.0112 µM; in the assay on TK-10 renal, 0.793 µM; in the assay with UACC-257 melanoma, 0.0237 µM; in the assay with UO-31 renal, 0.0766 µM. The TGI came out at 5.25 µM in the assay on HCC-2998 colon; 2.87 µM with MCF7 breast; 0.359 µM in the assay with MDA-MB-435; 0.271 µM in the assay with NCI-H522 lung; 0.317 µM in the assay with SK-MEL-5 melanoma; 1.31 µM in the assay with SK-OV-3 ovarian. Further, the TGI with SR leukemia is 3.22 µM; with TK-10 renal, 7.69 µM; in the assay on UACC-257 melanoma, 0.105 µM; with UO-31 renal, 0.241 µM.

Take `C/C1=C/C(=O)O[C@@H]2C[C@@H](CC[C@H](C)/C=C\C=C\CC1)O[C@@](OCCc1ccccc1)([C@@H]1CSC(=O)N1)C2`: the GI50 with HCC-2998 colon is 6 µM; with MCF7 breast, 5.37 µM; in the assay with MDA-MB-435, 0.324 µM; with NCI-H522 lung, 0.0581 µM; in the assay on SK-MEL-5 melanoma it was 0.226 µM; in the assay on SK-OV-3 ovarian it was 0.116 µM. The GI50 in the assay on SR leukemia is 0.379 µM; in the assay with TK-10 renal, 0.0895 µM; in the assay with UACC-257 melanoma it was 0.175 µM; with UO-31 renal, 0.0386 µM. Moreover, the TGI in the assay on HCC-2998 colon was over 17.5 µM; in the assay with MCF7 breast it was over 17.5 µM; with MDA-MB-435, 6.12 µM; with NCI-H522 lung, 2.47 µM; in the assay on SK-MEL-5 melanoma it was over 6.42 µM; in the assay on SK-OV-3 ovarian, over 5.4 µM. For the same molecule, the TGI with SR leukemia is over 17.5 µM; in the assay on TK-10 renal it was 0.287 µM; with UACC-257 melanoma, 17.3 µM; in the assay with UO-31 renal it was 0.173 µM.

With `C/C1=C\C/C=C(\C)[C@H]2CC(CC/C(C)=C/CC1)[C@](C)(C=O)O2`, the GI50 in the assay with HCC-2998 colon is 49.8 µM; with MCF7 breast it was 38.2 µM; in the assay with MDA-MB-435, 66.1 µM; with NCI-H522 lung it was 59.6 µM; in the assay on SK-MEL-5 melanoma, 77.1 µM; with SK-OV-3 ovarian, over 100 µM. The GI50 in the assay on SR leukemia is 16.3 µM; in the assay with TK-10 renal, over 100 µM; with UACC-257 melanoma, over 100 µM; with UO-31 renal, over 100 µM. In addition, the TGI was over 100 µM in the assay on HCC-2998 colon; 87.8 µM with MCF7 breast; over 100 µM with MDA-MB-435; over 100 µM in the assay on NCI-H522 lung; over 100 µM in the assay on SK-MEL-5 melanoma; over 100 µM in the assay with SK-OV-3 ovarian. Also, the TGI was 35.5 µM in the assay with SR leukemia, over 100 µM with TK-10 renal, over 100 µM in the assay with UACC-257 melanoma and over 100 µM in the assay on UO-31 renal.

Consider `OCC#Cc1ccccc1C#Cc1ccc(C#Cc2ccccc2C#CCO)s1`, for which the GI50 was 14.7 µM in the assay with HCC-2998 colon; 29.9 µM with MCF7 breast; 15.1 µM in the assay with MDA-MB-435; 11.7 µM in the assay on NCI-H522 lung; 16.3 µM in the assay with SK-MEL-5 melanoma; 15.9 µM in the assay with SK-OV-3 ovarian. For the same molecule, the GI50 in the assay with SR leukemia was 36.9 µM; in the assay on TK-10 renal, 16.7 µM; with UACC-257 melanoma, 22.1 µM; in the assay with UO-31 renal it was 18.1 µM. Moreover, the TGI in the assay with HCC-2998 colon is 28.8 µM; with MCF7 breast, over 100 µM; in the assay on MDA-MB-435, 29.2 µM; in the assay with NCI-H522 lung it was 29.2 µM; with SK-MEL-5 melanoma, 31.2 µM; in the assay with SK-OV-3 ovarian, 34.4 µM. Further, the TGI was over 100 µM with SR leukemia, 30.6 µM with TK-10 renal, 42.7 µM with UACC-257 melanoma and 36 µM in the assay on UO-31 renal.

For the molecule `CCCCCCCCCCCCCC(=O)C(C)N` (centres undefined), the GI50 is 2.87 µM in the assay with HCC-2998 colon; 2.13 µM with MCF7 breast; 13.8 µM in the assay on MDA-MB-435; 12.7 µM in the assay on NCI-H522 lung; 17.9 µM in the assay on SK-MEL-5 melanoma; 9.36 µM in the assay with SK-OV-3 ovarian. The GI50 in the assay with SR leukemia was 2.68 µM; in the assay on TK-10 renal, 3.81 µM; with UACC-257 melanoma, 18.6 µM; with UO-31 renal, 10.5 µM. Moreover, the TGI came out at 8.2 µM in the assay with HCC-2998 colon; 5.77 µM in the assay with MCF7 breast; 28 µM in the assay on MDA-MB-435; 27.5 µM in the assay with NCI-H522 lung; 32.2 µM in the assay with SK-MEL-5 melanoma; 22 µM in the assay on SK-OV-3 ovarian. Moreover, the TGI came out at 8.47 µM in the assay on SR leukemia, 13.2 µM with TK-10 renal, 34.1 µM with UACC-257 melanoma and 24.2 µM with UO-31 renal.

As to `C[C@@H](Oc1ccc2[nH]nc(/C=C/c3cnn(CCO)c3)c2c1)c1c(Cl)cncc1Cl`, the GI50 is 1.43 µM in the assay on HCC-2998 colon; 0.0573 µM in the assay on MCF7 breast; 0.866 µM in the assay on MDA-MB-435; 0.572 µM in the assay on NCI-H522 lung; 0.963 µM with SK-MEL-5 melanoma; 1.29 µM in the assay on SK-OV-3 ovarian. The GI50 with SR leukemia is 0.0208 µM; with TK-10 renal it was 0.251 µM; with UACC-257 melanoma it was 1.43 µM; in the assay with UO-31 renal, 0.217 µM. In addition, the TGI with HCC-2998 colon was 5.21 µM; in the assay with MCF7 breast, 4.06 µM; with MDA-MB-435 it was 3.12 µM; in the assay with NCI-H522 lung, 2.49 µM; in the assay with SK-MEL-5 melanoma, 3.6 µM; with SK-OV-3 ovarian, 6.15 µM. For the same molecule, the TGI with SR leukemia is 1.1 µM; in the assay on TK-10 renal, 1.68 µM; with UACC-257 melanoma it was 6.29 µM.

As for `Cc1ccc2c(c1)O/C(=C\c1ccc([N+](=O)[O-])o1)C2=O`, the GI50 in the assay on HCC-2998 colon was 2.05 µM; in the assay on MCF7 breast it was 0.432 µM; with MDA-MB-435, 1.87 µM; in the assay on NCI-H522 lung it was 0.531 µM; with SK-MEL-5 melanoma, 1.61 µM; with SK-OV-3 ovarian, 4.66 µM. For the same molecule, the GI50 was 0.168 µM in the assay with SR leukemia, 1.39 µM with TK-10 renal, 1.54 µM in the assay with UACC-257 melanoma and 1.18 µM in the assay on UO-31 renal. Further, the TGI is 4.49 µM in the assay on HCC-2998 colon; 2.01 µM with MCF7 breast; 4.42 µM in the assay on MDA-MB-435; 1.86 µM with NCI-H522 lung; 3.04 µM with SK-MEL-5 melanoma; over 100 µM with SK-OV-3 ovarian. Further, the TGI in the assay with SR leukemia is 0.799 µM; in the assay on TK-10 renal, 2.75 µM; with UACC-257 melanoma, 3.31 µM; in the assay with UO-31 renal, 3.46 µM.

For the molecule `CC1SC(c2c(Cl)cccc2Cl)N(NC(=O)C(O)c2ccccc2)C1=O` (centres undefined), the GI50 in the assay with HCC-2998 colon is over 100 µM; in the assay with MCF7 breast it was 74.2 µM; in the assay on MDA-MB-435, 43.2 µM; in the assay with NCI-H522 lung, 60.9 µM; with SK-MEL-5 melanoma it was 68.4 µM; in the assay on SK-OV-3 ovarian it was over 100 µM. The GI50 with SR leukemia is 34.9 µM; with TK-10 renal it was over 100 µM; in the assay on UACC-257 melanoma it was 86.3 µM; in the assay with UO-31 renal it was over 100 µM. Further, the TGI with HCC-2998 colon, in the assay on MCF7 breast, with MDA-MB-435, in the assay on NCI-H522 lung, in the assay on SK-MEL-5 melanoma and in the assay on SK-OV-3 ovarian was over 100 µM each time. The TGI with SR leukemia, in the assay with TK-10 renal, with UACC-257 melanoma and with UO-31 renal was over 100 µM throughout.

With `COc1ccc(Cl)cc1NC(=O)c1cccc([N+](=O)[O-])c1O`, the TGI in the assay with HCC-2998 colon is 62.1 µM; with MCF7 breast, 66.2 µM; in the assay on MDA-MB-435 it was over 100 µM; in the assay on NCI-H522 lung it was 38.6 µM; in the assay with SK-MEL-5 melanoma, 14.7 µM; with SK-OV-3 ovarian, over 77.9 µM. The TGI in the assay with SR leukemia was over 76.1 µM; in the assay with TK-10 renal it was over 100 µM; in the assay with UACC-257 melanoma, over 67.9 µM; with UO-31 renal it was 39.8 µM.

As for `CC(=O)OC1CCC2(C)C(=CCC3C4CCC5(OC6CC(C)CN(C(C)=O)C6C5C)C(C)=C4C(=O)C32)C1` (centres undefined), the TGI with HCC-2998 colon was 28.8 µM; in the assay on MCF7 breast it was 26.4 µM; with MDA-MB-435 it was 32 µM; in the assay on NCI-H522 lung, 29.4 µM; in the assay on SK-MEL-5 melanoma, 21.9 µM; with SK-OV-3 ovarian, 66.8 µM. Moreover, the TGI with SR leukemia stood at 40.8 µM; with TK-10 renal, 56.7 µM; in the assay with UACC-257 melanoma, 27.3 µM; in the assay with UO-31 renal, 81.4 µM.

Turning to `CC(C)(C)[Si](C)(C)OCC1C=CC(n2cnc3c(N)ncnc32)O1` (centres undefined), the TGI in the assay on HCC-2998 colon was over 100 µM; in the assay with MCF7 breast it was over 75.4 µM; in the assay on MDA-MB-435, 57.1 µM; in the assay on NCI-H522 lung it was over 100 µM; with SK-MEL-5 melanoma, 34.1 µM; in the assay on SK-OV-3 ovarian it was over 100 µM. The TGI in the assay with SR leukemia is 60.8 µM; in the assay on TK-10 renal, over 100 µM; in the assay on UACC-257 melanoma, 98.4 µM; in the assay on UO-31 renal, over 100 µM.

Source of the values: PubChem BioAssay (NCI).
